Measured values: patent US6872706B2, “Glucopyranosyloxybenzylbenzene derivatives and medicinal compositions containing the same” (Kissei Pharmaceutical Co., Ltd., priority 2000, dated 2005)

Key:
[1] = target: T1, human SGLT2 (Homo sapiens, UniProt P31639, I433V); assay: Assay for inhibitory effect on human SGLT2 activity (uptake of methyl-α-D-glucopyranoside in COS-7 cells expressing transiently human SGLT2); assay type: cell-based; conditions: inhibition of methyl-α-D-(U-14C)glucopyranoside uptake, COS-7 cells expressing transiently human SGLT2, 37° C., 2 hours
T1 construct: expressed in transfected cells; host or cells: COS-7 cells (RIKEN CELL BANK RCB0539), transient, electroporation
T1 sequence (P31639 1-672 I433V): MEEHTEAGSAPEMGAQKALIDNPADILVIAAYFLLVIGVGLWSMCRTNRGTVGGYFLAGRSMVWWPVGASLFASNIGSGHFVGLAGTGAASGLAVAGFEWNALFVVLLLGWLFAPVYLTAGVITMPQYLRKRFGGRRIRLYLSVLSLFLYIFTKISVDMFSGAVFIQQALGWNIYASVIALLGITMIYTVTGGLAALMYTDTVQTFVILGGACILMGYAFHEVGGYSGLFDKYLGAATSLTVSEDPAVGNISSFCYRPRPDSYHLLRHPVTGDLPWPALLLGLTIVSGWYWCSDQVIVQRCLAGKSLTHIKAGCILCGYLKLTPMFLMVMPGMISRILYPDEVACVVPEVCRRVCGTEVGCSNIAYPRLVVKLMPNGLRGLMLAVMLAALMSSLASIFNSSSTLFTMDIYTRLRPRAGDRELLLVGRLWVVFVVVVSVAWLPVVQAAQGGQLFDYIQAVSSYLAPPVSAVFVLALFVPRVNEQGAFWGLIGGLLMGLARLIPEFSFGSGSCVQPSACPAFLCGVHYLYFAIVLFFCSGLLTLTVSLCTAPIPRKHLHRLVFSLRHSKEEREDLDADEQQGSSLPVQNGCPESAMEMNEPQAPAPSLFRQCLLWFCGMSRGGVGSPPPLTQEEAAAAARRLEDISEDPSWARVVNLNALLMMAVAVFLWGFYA
Protocol: Assay for Inhibitory Effect on Human SGLT2 Activity
1) Construction of the Plasmid Vector Expressing Human SGLT2
Preparation of the cDNA library for PCR amplification was performed by reverse transcription of a total RNA deprived from human kidney (Ori gene) with oligo dT as the primer, using […] Preamplification System (Gibco-BRL: LIFE TECHNOLOGIES). […] The amplified DNA fragment was ligated into pCR-Blunt (Invitrogen), a vector for cloning, according to standard method of the kit. The competent cell, Escherichia coli HB101 (Toyobo), was transformed according to usual method and then selection of the transformants was performed on the LB agar medium containing 50 μg/mL of kanamycin. After the plasmid DNA was extracted and purified from the one of the transformants, amplifying of the DNA fragment coding for human SGLT2 was performed by the Pfu DNA Polymerase (Stratagene)-used PCR reaction, in which the following oligo nucleotides 0714F and 0715R, presented as Sequence Numbers 3 and 4 respectively, were used as the primers. The amplified DNA fragment was digested with restriction enzymes, Xho I and Hind III, and then purified with Wizard Purification System (Promega). This purified DNA fragment was inserted at the corresponding multi-cloning sites of pcDNA3.1 (−) Myc/His-B (Invitrogen), a vector for expressing of fusion protein. The competent cell, Escherichia coli HB101 (Toyobo), was transformed according to usual method and then selection of the transformant was performed on the LB agar medium containing 100 μg/mL of ampicillin. After the plasmid DNA was extracted and purified from this transformant, the base sequence of the DNA fragment inserted at the multi-cloning sites of pcDNA3.1 (−) Myc/His-B was analyzed. […] This plasmid vector expressing human SGLT2 in which the peptide presented as Sequence Number 5 is fused to the carboxyl terminal alanine residue was designated KL29.
2) Preparation of the Cells Expressing Transiently Human SGLT2
KL29, the plasmid coding human SGLT2, was transfected into COS-7 cells (RIKEN CELL BANK RCB0539) by electroporation. Electroporation was performed with GENE PULSER II (Bio-Rad Laboratories) under the condition: 0.290 kV, 975 μF, 2×10^6 cells of COS-7 cell and 20 μg of KL29 in 500 μL of OPTI-MEM I medium (Gibco-BRL: LIFE TECHNOLOGIES) in the 0.4 cm type cuvette. After the gene transfer, the cells were harvested by centrifugation and resuspended with OPTI-MEM I medium (1 mL/cuvette). To each well in 96-wells plate, 125 μL of this cell suspension was added. After overnight culture at 37° C. under 5% CO2, 125 μL of DMEM medium which is containing 10% of fetal bovine serum (Sanko Jyunyaku), 100 units/mL sodium penicillin G (Gibco-BRL: LIFE TECHNOLOGIES) and 100 μg/mL streptomycin sulfate (Gibco-BRL: LIFE TECHNOLOGIES) was added to each well. After a culture until the following day, these cells were used for the measurement of the inhibitory activity against the uptake of methyl-α-D-glucopyranoside.
3) Measurement of the Inhibitory Activity Against the Uptake of Methyl-α-D-Glucopyranoside
After a test compound was dissolved in dimethyl sulfoxide and diluted with the uptake buffer (a pH 7.4 buffer containing 140 mM sodium chloride, 2 mM potassium chloride, 1 mM calcium chloride, 1 mM magnesium chloride, 5 mM methyl-α-D-glucopyranoside, 10 mM 2-[4-(2-hydroxyethyl)-1-piperazinyl]ethane sulfonic acid and 5 mM tris (hydroxymethyl) aminomethane), each diluent was used as test sample for measurement of the inhibitory activity.

[2] = Assay for the facilitatory effect on urinary glucose excretion; assay type: in vivo; conditions: non-fasted male SD rats, oral, urine collected 24 hours
Protocol: Assay for the Facilitatory Effect on Urinary Glucose Excretion
As experimental animal, non-fasted SD rats (SLC. Inc., male, 8 weeks of age, 270-320 g) were used. A test compound was suspended in 0.5% sodium carboxymethylcellulose solution and 0.3, 1 and 3 mg/mL suspension were prepared. Adler the body weights of rats were measured, the test suspension was orally administered at the dose of 10 mL/kg (3, 10 and 30 mg/kg). For the control, just only 0.5% sodium carboxymethylcellulose solution was orally administered at the dose of 10 mL/kg. The oral administration was performed with gastric tube for rat and 2.5 mL syringe. The head count in one group was 5 or 6. Collection of urine was performed in metabolic cage after the oral administration was finished. The sampling time for collection of urine was 24 hours after the oral administration. After collection of urine was finished, the urine volume was recorded and the urinary glucose concentration was measured. The glucose concentration was measured with a kit for laboratory test: Glucose B-Test WAKO (Wako Pure Chemical Industries, Ltd.). The amount of urinary glucose excretion in 24 hours per 200 g of body weight was calculated from urine volume, urinary glucose concentration and body weight.

[3] = Acute toxicity test; assay type: in vivo; conditions: male ICR mice, oral 600 mg/kg, until 24 hours after the administration, 5 animals in each group
Protocol: Four weeks old male ICR mice (CLEA JAPAN, INC. 22-28 g, 5 animals in each group) were fasted for 4 hours, and 60 mg/mL of a suspension of a test compound in 0.5% sodium carboxymethylcellulose solution was orally administered at the dose of 10 mL/kg(600 mg/kg).

SMILES | IC50 [1] [nM] | other results
CC(C)Oc1ccc(Cc2ccccc2O[C@@H]2O[C@H](CO)[C@@H](O)[C@H](O)[C@H]2O)cc1 [Reference Example 16, 2-(4-Isopropoxybenzy)phenyl β-D-Glucopyranoside] | 370 | 
COc1ccc(Cc2ccccc2O[C@@H]2O[C@H](CO)[C@@H](O)[C@H](O)[C@H]2O)cc1 [Reference Example 11, 2-(4-Methoxybenzyl)phenyl β-D-glucopyranoside] | 350 | 
CC(C)Cc1ccc(Cc2ccccc2O[C@@H]2O[C@H](CO)[C@@H](O)[C@H](O)[C@H]2O)cc1 [Reference Example 14, 2-(4-Isobutylbenzyl)phenyl β-D-glucopyranoside] | 500 | 
CCOc1ccc(Cc2ccccc2O[C@@H]2O[C@H](CO)[C@@H](O)[C@H](O)[C@H]2O)cc1 [Reference Example 15, 2-(4-Ethoxybenzyl)phenyl β-D-glucopyranoside] | 330 | 
CCOC(=O)OC[C@H]1O[C@@H](Oc2ccccc2Cc2ccc(OC)cc2)[C@H](O)[C@@H](O)[C@@H]1O [Example 1, 2-(4-Methoxybenzyl)phenyl 6-O-ethoxycarbonyl-β-D-glucopyranoside] |  | Amount of Urinary Glucose Excretion ([2]; dose 3 mg/kg): 52 mg/24 hours · 200 g body weight; Amount of Urinary Glucose Excretion ([2]; dose 10 mg/kg): 239 mg/24 hours · 200 g body weight; Amount of Urinary Glucose Excretion ([2]; dose 30 mg/kg): 513 mg/24 hours · 200 g body weight; Death number [3]: 0/5
CCc1ccc(Cc2ccccc2O[C@@H]2O[C@H](CO)[C@@H](O)[C@H](O)[C@H]2O)cc1 [Reference Example 13, 2-(4-Ethylbenzyl)phenyl β-D-glucopyranoside] | 140 | 
CCSc1ccc(Cc2ccccc2O[C@@H]2O[C@H](CO)[C@@H](O)[C@H](O)[C@H]2O)cc1 [Reference Example 17, 2-(4-Ethylthiobenzyl)phenyl β-D-glucopyranoside] | 110 | 
